Data on 5 compounds can be found in US7763567B2, “Agrochemical compositions” (priority 2003, dated 2010).

The test system of series [1] is eight representative weed species. The format is in vivo. Here is the method:
The bioperformance enhancement of paraquat in the presence of amines of the present invention was evaluated. An aqueous formulation of paraquat dichloride containing 0.5% by weight of amine (based on the weight of the parent amine and based on total spray volume) was applied using a moving track sprayer to eight representative weed species at 10, 20 and 40 g/ha (based on paraquat ion). The spray volume was equivalent to 200 l/ha.
Three replicates of each test were undertaken and the biological data (% activity where 0% represents no herbicidal effect and 100% represents complete kill) at 7 days after treatment is expressed in Table 4 as a mean over all species based on an average response over the combined rates. The results are compared with an equivalent formulation containing only paraquat chloride.
The bioperformance enhancement of paraquat in the presence of some amines of the present invention was evaluated. An aqueous formulation of paraquat dichloride containing 0.2% by weight of amine (based on the weight of the parent amine and based on total spray volume) was applied using a moving track sprayer to eight representative weed species at 10, 20 and 40 g/ha (based on paraquat ion). The spray volume was equivalent to 200 l/ha.
Three replicates of each test were undertaken and the biological data (% activity where 0% represents no herbicidal effect and 100% represents complete kill) at 7 days after treatment is expressed in Table 5 as a mean over all species based on an average response over the combined rates. The results are compared with an equivalent standard formulation containing paraquat chloride and 0.2% of an effective adjuvant blend

The format of series [2] is physicochemical. Conditions: for loading at which compatible with compositions of WO 02/076212: actual amine. The text has this: It is to be understood that the term physical incompatibility in relation to adjuvants used in bipyridyl compositions indicates either gross separation of one or more components of the composition which may or may not be accompanied by a significant change in formulation rheology or bulk homogeneity. It is not necessarily essential that the composition is fully homogeneous in a strict physical sense provided that the composition is substantially homogeneous in the bulk. Thus a slight separation of a second phase may be acceptable provided that the separated phase remains fully dispersed in the bulk. […] This is obviously undesirable for a number of reasons. The term physical compatibility indicates the reverse of physical incompatibility as defined above.

Series [3] deals with Ipomoea hederacea (IPOHE). The class given is in vivo. The text has this:
(§1) TEDA was first neutralized with hydrochloric acid to form the TEDA hydrochloride. An aqueous formulation of paraquat dichloride containing 0.5% by weight of TEDA based on total spray volume was applied to test species Ipomoea hederacea (IPOHE) and Sida spinosa (SIDSP) at 10 and 30 g/ha (based on paraquat ion). The spray volume was equivalent to 200 L/ha The biological data (% activity) at 6 days after treatment is expressed in Table 1 as an average response over the combined rates and is compared with an equivalent formulation containing only paraquat chloride.
(§2) The following compositions were compared using the general procedure of Example 1. TEDA was used in the form of its hydrochloride: • 1. An aqueous formulation containing paraquat dichloride and 0.5% by weight of TEDA hydrochloride based on total spray volume; • 2. An aqueous formulation containing paraquat dichloride and 0.5% by weight based on total spray volume of a mixture of TEDA hydrochloride and the surfactant EMPIGEN BB and TEDA at a ratio of TEDA to EMPIGEN BB of 5:2. EMPIGEN BB is lauryl betaine supplied at a concentration of 30%. The proportions given above and below are based on lauryl betaine content. • 3. An aqueous formulation (comparison) containing paraquat dichloride and 0.5% by weight based on total spray volume of EMPIGEN BB • 4. An aqueous formulation containing paraquat dichloride and 0.5% by weight based on total spray volume of a mixture of TEDA hydrochloride and the surfactant AGRIMUL PG2067 and TEDA at a ratio of TEDA to AGRIMUL PG2067 of 5:2. AGRIMUL PG2067 is an alkylpolyglycoside supplied at a concentration of 70%. The proportions given above and below are based on alkylpolyglycoside content. • 5. An aqueous formulation (comparison) containing paraquat chloride and 0.5% by weight based on total spray volume of AGRIMUL PG2067.

The subject of another series is Sida spinosa (SIDSP). The format is in vivo.
Description: as §1, §2

The mark [4] stands for this setting: Example 4, 0.5% by weight amine, paraquat 10, 20 and 40 g/ha, 200 l/ha, 7 days after treatment, mean over all species and combined rates, three replicates.
Setting [5] is: Example 2, general procedure of Example 1, adjuvant 0.5% by weight of total spray volume, TEDA:surfactant 5:2.
The mark [6] stands for this setting: Example 3, procedure of Example 1, adjuvant 0.5% by weight of total spray volume, TEDA salts with anionic surfactants.

Where a name gives a salt, the structure may show the parent alone. Read-outs that look alike come from different tables or passages of the source.

As to `NCCN` [EDA as HCl salt, ethylenediamine, reference compound], the “Mean Activity (%)” value in series [1] (in vivo) turned out to be 54%.
As for `C1CN2CCN1CC2` [TEDA, Triethylenediamine], the “Mean Activity (%)” value in series [1] (setting [4]) came out at 61%. For the same compound, the “loading at which compatible with compositions of WO 02/076212” value (from here on “loading at which compatible”) in series [2] was at least 60 g/L. The “% Activity IPOHE” value in series [3] (setting [5]) is listed as 64.4%; in series [3] (setting [6]) it was 63.8%. Further, the “% Activity SIDSP” value was found to be 35.8% in the series with Sida spinosa (SIDSP) (setting [5]) and 45.9% in the series with Sida spinosa (SIDSP) (setting [6]).
On to `NCCNCCNCCN` [TETA as HCl salt, triethylenetetramine, reference compound], for which, in series [1] (in vivo), the “Mean Activity (%)” value is 60%. Besides, in series [2], the “loading at which compatible” value is given as “less than 30 g/l”.
Consider `CN(C)CCN(C)C` [TMEDA as HCl salt, tetramethylethylenediamine], for which the “Mean Activity (%)” value in series [1] (setting [4]) was found to be 59%; in series [1] (Example 5, 0.2% by weight amine, paraquat 10, 20 and 40 g/ha, 200 l/ha, 7 days after treatment, mean over all species and combined rates, three replicates), 56%. Further, the “loading at which compatible” value in series [2] was at most 30 g/L.
Take `CCCCCCCCOC(=O)CC(C(=O)OCCCCCCCC)S(=O)(=O)O.[Na]` (stereo not shown) [sodium dioctyl sulphosuccinate, reference compound]: in series [2] (about 120 g/l paraquat ion, about 80 g/l diquat ion, alginate, about 120 g/l magnesium sulphate heptahydrate), the “level at which physical separation / two phases observed” value is reported as “below 10 g/l”.
